Source: ChEMBL document CHEMBL1201862, “PubChem BioAssay data set” (2004)
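Growth conditions: 96-well plates. Treatment: test compound, 48 hours, 5 concentrations. Analysis: linear interpolation between bracketing concentrations; unreached endpoints set to highest concentration. Abbreviation: GI50, concentration required for 50% inhibition of growth.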 Active and inactive are the calls of the source. Cut-off read from the data, not from the text of the source: active = GI50 up to about 1.1 µM and inactive = higher.

Legend:
Assay in all cases: NCI tumour cell line growth inhibition, 48 h
[1] = system: HL-60
[2] = system: MDA-N
[3] = system: HOP-62
[4] = system: SW-620
[5] = system: SK-OV-3
[6] = system: M14
[7] = system: DU-145
[8] = system: MOLT-4
[9] = system: TK-10
[10] = system: BT-549
[11] = system: NCI-H226
[12] = system: 786-0
[13] = system: Hs-578T
[14] = system: SK-MEL-5
[15] = system: CAKI-1
[16] = system: COLO 205
[17] = system: T47D
[18] = system: UO-31
[19] = system: PC-3
[20] = system: HCC 2998
[21] = system: NCI/ADR-RES
[22] = system: OVCAR-8
[23] = system: SF-539
[24] = system: SK-MEL-28
[25] = system: SN12C
[26] = system: KM12
[27] = system: MDA-MB-231
[28] = system: HCT-15
[29] = system: OVCAR-3
[30] = system: HCT-116
[31] = system: RXF 393
[32] = system: CCRF-CEM
[33] = system: NCI-H23
[34] = system: UACC-257
[35] = system: MDA-MB-435
[36] = system: MCF7
[37] = system: UACC-62
[38] = system: SF-268
[39] = system: HOP-92
[40] = system: A498
[41] = system: SK-MEL-2
[42] = system: SNB-75
[43] = system: SR
[44] = system: HT-29
[45] = system: SNB-19
[46] = system: A549
[47] = system: U-251
[48] = system: SF-295
[49] = system: K562
[50] = system: NCI-H460
[51] = system: IGROV-1
[52] = system: LOX IMVI
[53] = system: OVCAR-4
[54] = system: EKVX
[55] = system: OVCAR-5
[56] = system: RPMI-8226
[57] = system: ACHN

SMILES: c1ccc(-c2cc(-c3cccs3)c(-c3cccs3)o2)cc1
- GI50 [1]: > 100 µM (inactive)
- GI50 [2]: > 100 µM (inactive)
- GI50 [3]: > 100 µM (inactive)
- GI50 [4]: > 100 µM (inactive)
- GI50 [5]: > 100 µM (inactive)
- GI50 [6]: > 100 µM (inactive)
- GI50 [7]: > 100 µM (inactive)
- GI50 [8]: > 100 µM (inactive)
- GI50 [9]: > 100 µM (inactive)
- GI50 [10]: > 100 µM (inactive)
- GI50 [11]: > 100 µM (inactive)
- GI50 [12]: > 100 µM (inactive)
- GI50 [13]: > 100 µM (inactive)
- GI50 [14]: > 100 µM (inactive)
- GI50 [15]: > 100 µM (inactive)
- GI50 [16]: > 100 µM (inactive)
- GI50 [17]: > 100 µM (inactive)
- GI50 [18]: > 100 µM (inactive)
- GI50 [19]: > 100 µM (inactive)
- GI50 [20]: > 100 µM (inactive)
- GI50 [21]: > 100 µM (inactive)
- GI50 [22]: > 100 µM (inactive)
- GI50 [23]: > 100 µM (inactive)
- GI50 [24]: > 100 µM (inactive)
- GI50 [25]: > 100 µM (inactive)
- GI50 [26]: 48.4 µM (inactive)
- GI50 [27]: > 100 µM (inactive)
- GI50 [28]: > 100 µM
- GI50 [29]: 61.1 µM (inactive)
- GI50 [30]: 50.7 µM (inactive)
- GI50 [31]: > 100 µM (inactive)
- GI50 [32]: > 100 µM (inactive)
- GI50 [33]: > 100 µM (inactive)
- GI50 [34]: > 100 µM (inactive)
- GI50 [35]: > 100 µM (inactive)
- GI50 [36]: 32.2 µM (inactive)
- GI50 [37]: > 100 µM (inactive)
- GI50 [38]: > 100 µM (inactive)
- GI50 [39]: > 100 µM (inactive)
- GI50 [40]: > 100 µM (inactive)
- GI50 [41]: 34.7 µM (inactive)
- GI50 [42]: > 100 µM (inactive)
- GI50 [43]: > 100 µM (inactive)
- GI50 [44]: > 100 µM (inactive)
- GI50 [45]: > 100 µM (inactive)
- GI50 [46]: > 100 µM (inactive)
- GI50 [47]: > 100 µM (inactive)
- GI50 [48]: > 100 µM (inactive)
- GI50 [49]: > 100 µM (inactive)
- GI50 [50]: > 100 µM (inactive)
- GI50 [51]: > 100 µM (inactive)
- GI50 [52]: > 100 µM (inactive)
- GI50 [53]: > 100 µM (inactive)
- GI50 [54]: > 100 µM (inactive)
- GI50 [55]: > 100 µM (inactive)
- GI50 [56]: > 100 µM (inactive)
- GI50 [57]: > 100 µM (inactive)
